System: WT mice
Test: High-altitude balance beam (5 mm) experiment 2, WT mice
Type: in vivo, mouse
Conditions: 5 mg/kg/d intragastric
Experimental: 7-week-old N171-82Q HD male mice were paired with female B6C3F1/J hybrid mice to obtain newborn mice. From 21 days of age, male mice were housed in separate cages. 0.5 cm of mouse tail tissue was removed to extract DNA to determine the genotype of the mouse, such that N171-82Q HD mice and WT mice needed for the experiment were obtained. The mice were randomly divided into WT Vehicle group (normal mice), WT test compound group (administration group of normal mice, 5 mg/kg/d, n=10), HD Vehicle group (blank group of HD mice, n=15), HD test compound group (administration groups 1-5 of HD mice, 5 mg/kg/d, n=10). The test compound was suspended in 1% CMC-Na solution and administered by intragastric administration until the end of the study. The weights of the mice were measured every week. Behavioral tests were performed at 12 weeks, 18 weeks, and 24 weeks of age to investigate motor function. At 20 weeks, 3 samples of tissue from each group were used for western blotting and immunohistochemistry. At 24 weeks, MRI scans were performed. At the end of the study, the effect of the test compound on the mortality of mice was evaluated. The software Sigmaplot 13.0 was used for statistical analysis of the data, and the data of each group was expressed as mean standard error (x±SEM). Behavioral test results were analyzed using two-way (genotype and processing factor) ANOVA and post-ho tests, the comparison and statistics of weight data were performed using two-way (genotype and age) ANOVA of repeated measures, and mortality was counted using Kaplan-Meier method. Other measurement data were analyzed by one-way ANOVA. P<0.05 was considered statistically significant. The motor function of mice was evaluated by the rotarod experiment and three types of balance beam experiments. […] If the time for crossing the beams was greater than 60 seconds, it was recorded as 60 seconds. a square balance beam with a length of 80 cm and a width of 5 mm was place at a height of about 50 cm from the ground. […]

O=c1cc(-c2ccc(N3CCCCC3)cc2)oc2c(O)c(O)ccc12 [Example 1, 7,8-dihydroxy-2-(4-(piperidin-1-yl)phenyl)-4H-chromen-4-one]
Time for crossing the beams, high-altitude balance beam (5 mm) (12 w): 11.64 ± 4.20 s
Time for crossing the beams, high-altitude balance beam (5 mm) (18 w): 9.91 ± 3.05 s
Time for crossing the beams, high-altitude balance beam (5 mm) (24 w): 14.18 ± 7.07 s

— patent US20200390755A1, “COMPOUND FOR TREATING NERVOUS SYSTEM DISEASES AND USE THEREOF” (SHAANXI MICOT TECHNOLOGY CO., LTD., priority 2018, published 2020)
